This is an account of results in publication PMC5760734, “Development of an oral once-weekly drug delivery system for HIV antiretroviral therapy” (Nature Communications, 2018).

The conditions of data set [1]: humans receiving the usual oral dose; stated by Reviewer 1, no reference; cited from earlier work.
Data set [2] relates to HIV reference strain NL4-3. Set-up: method as in ref 46,55–57 (a number printed in a supplementary file, which may have a reference list of its own: not looked up in the article's list). Particulars: wild-type virus; cited from earlier work.
The subject of data set [3] is drug-resistant HIV strains. The note with it: cited from earlier work.
The nature of data set [4]: Drug stability in simulated gastric fluid (SGF), HPLC. The note with it: SGF pH ~1.2, 37 °C, 24 h, salt forms. The procedure:
To determine drug stability at low pH, the drugs were dissolved in methanol to form a concentrated stock solution. Methanol solutions were then diluted 20-fold in simulated gastric fluid, USP without pepsin (pH ~1.2; henceforth referred to as SGF). Drug solutions were then placed in a shaker incubator (New Brunswick™ Innova® 44, Eppendorf, USA) at 37 °C and 150 r.p.m. At various times, aliquots were withdrawn and stored at −20 °C until analysis. Drug concentrations in the solution were analysed using HPLC and reported as percent of the initial concentrations.
The output signal was monitored and processed using ChemStation® software (Agilent Technologies Inc., USA). Chromatographic separation was carried out on a 50 mm × 4.6 mm EC-C18 Agilent Poroshell 120 analytical column with 2.7 µm spherical particles.
The injection volume was 5 µL, and the UV detection wavelength of 260 nm was selected.
For RPV, the stationary phase was maintained at 40 °C. The mobile phase consisted of methanol: water (pH 3.5 adjusted with 0.1% formic acid) (43:57 v/v) at a flow rate of 0.9 mL/min over a 10 min run time. The injection volume was 20 µL, and the UV detector was set at 290 nm.
For CAB, the column was maintained at 45 °C and the optimized mobile phase consisted of acetonitrile: water (pH 3.5 adjusted with 0.1% formic acid) (30:70 v/v) at flow rate of 0.8 mL/min over an 8 min run time. For analysis, 5 µL of the sample was injected on to the column, and the samples were analysed at a wavelength of 260 nm.
For tenofovir alafenamide, the column was maintained at 22 °C. The mobile phase consisted initially of acetonitrile: water (pH 3.5 adjusted with 0.1% formic acid) (100:0 v/v). […] The flow rate was 0.6 mL/min and the run time was 8 min. The injection volume was 10 µL, and the UV detection wavelength of 260 nm was selected.

Another data set deals with HIV. Set-up: method as in ref 2–6 (a number printed in a supplementary file, which may have a reference list of its own: not looked up in the article's list). Particulars: monotherapy or dual therapy with rilpivirine, after a two-year follow up; cited from earlier work.

Read-outs that look alike come from different tables or passages of the source. A value given as a limit tells only on which side of the number the result lay.

Consider `C[C@@H]1CCO[C@H]2Cn3cc(C(=O)NCc4ccc(F)cc4F)c(=O)c(O)c3C(=O)N12` [DTG, dolutegravir], for which the “usual Cmax in humans” value in data set [1] is on record as 3700 ng/mL. Also, the IC50 in data set [2] is 70 nM. The “m (slope parameter of Hill curve)” value in data set [2] is 1.2. The “Fold change in IC50 (ρ)” value in data set [3] (mutation E138K/Q148K) was 19.00; in data set [3] (mutation E138K) it was 0.40; in data set [3] (mutation E157Q/R263K), 19.90; in data set [3] (mutation E157Q), 0.01; in data set [3] (mutation G140S/Q148R), 7.98; in data set [3] (mutation G140S), 0.76. In addition, the “Fold change in IC50 (ρ)” value in data set [3] (mutation H51Y/R263K) was 6.95; in data set [3] (mutation H51Y), 1.25; in data set [3] (mutation M50I/R263K) it was 15.59; in data set [3] (mutation M50I) it was 1.94; in data set [3] (mutation N155H) it was 1.96; in data set [3] (mutation Q148K), 1.10. Besides, the “Fold change in IC50 (ρ)” value in data set [3] (mutation Q148R/N155H) was 10.00; in data set [3] (mutation Q148R), 1.20; in data set [3] (mutation R263K), 2.00. Further, the “Fractional change in slope (σ)” value in data set [3] (mutation G140S/Q148R) is 0.01; in data set [3] (mutation G140S), -0.01. Moreover, the “stability in SGF” value in data set [4] is reported as “stable”. Also, in the data set with HIV, the “patients with plasma viremia levels of <50 copies/mL” value is on record as > 95 % patients.

Usually IC50 stands for the concentration that inhibits the measured activity by half.
